The experiment concerns the target DCN1 (DCUND1) protein PONY domain (Homo sapiens (Human), UniProt Q96GG9). In words: TR-FRET assay (binding to DCN-1, displacement of FAM-labeled probe). The settings on record: for IC50: TR FRET IC50 1 hr (nM). The method in brief: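 Compounds read at 1, 5 and 24 h, 0.1% final DMSO, by TR-FRET between terbium-streptavidin on biotinylated DCN1 PONY domain (E. coli) and a FAM-tagged non-covalent inhibitor probe. Two setups used, 5 nM protein with 20 nM labelled probe, or 0.31 nM protein with 100 nM labelled plus 800 nM unlabelled probe; buffer had TritonX and 200 mM NaCl. % activity relative to high (with probe) and low (without probe) controls.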

Setting [1] is: 24 hr after treatment with compound, read-out: TR FRET IC50 24 hr.
Where [2] appears, read: read-out: TR FRET IC50 1 hr, 1 hr after treatment with compound.
The mark [3] stands for this setting: 1 hr after treatment with compound.

pIC50: −log10 of the molar value. Where two headings read alike, the source gives them in different places.

Drawing on patent US12435087B2, “Modulators of DCN-1 and methods of use thereof” (Cellarity, Inc., priority 2023, dated 2025), this text covers IC50 for 21 molecules.

Sequence of DCN1 (DCUND1) protein PONY domain (Q96GG9 60-248): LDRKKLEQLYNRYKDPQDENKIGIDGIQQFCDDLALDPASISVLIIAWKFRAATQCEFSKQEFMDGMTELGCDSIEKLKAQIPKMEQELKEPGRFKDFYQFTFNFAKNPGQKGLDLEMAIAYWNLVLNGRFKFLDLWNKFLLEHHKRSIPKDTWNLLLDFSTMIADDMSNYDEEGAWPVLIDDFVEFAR

For the molecule `C=C(CN1CCN(C2COC2)CC1)C(=O)NCc1cccc([C@@H]2c3cnn(-c4ccccc4)c3N(CC)C(=O)[C@H]2NC(=O)c2ccn(C(F)(F)F)n2)c1` [Compound I-356], the pIC50 by setting is: under setting [1], no less than 6.70; under setting [2], no less than 6.70.

On to `C=C(CN1CCOCC1)C(=O)NCc1cccc([C@@H]2c3cnn(-c4ccccc4)c3N(CC)C(=O)[C@H]2NC(=O)c2ccn(CCF)n2)c1` [Compound I-357], for which the negative logarithm of the IC50 (pIC50) under setting [1] was no less than 6.70. For the same molecule, under setting [3], the IC50 was in the range of 200 to 1000 nM.

Turning to `CCC(=O)NCc1cccc([C@@H]2c3cnn(-c4ccccc4)c3N(CC)C(=O)[C@H]2NC(=O)c2nccc(C(F)(F)F)n2)c1` [Compound I-358], under setting [1], the pIC50 is 5.52 to 6.00. Under setting [3], the IC50 was in the range of 1000 to 3000 nM.

Regarding `CCN1C(=O)[C@@H](NC(=O)c2nccc(C(F)(F)F)n2)[C@H](c2cccc(CNC(=O)C(COC)CN3CCC(F)(F)C3)c2)c2cnn(-c3ccccc3)c21` (stereo partly drawn) [Compound I-360], the pIC50 under setting [1] is 5.52 to 6.00. For the same molecule, the IC50 under setting [3] is 1000 to 3000 nM.

`C=C(CN1CC(C)(O)C1)C(=O)NCc1cccc([C@@H]2c3cnn(-c4ccccc4)c3N(CC)C(=O)[C@H]2NC(=O)c2cccc(C(F)(F)F)c2)c1` [Compound I-361]: the pIC50 is, setting by setting: under setting [1], no less than 6.70; under setting [2], no less than 6.70.

Take `CCN1C(=O)[C@H](NC(=O)c2cccc(C(F)(F)F)c2)[C@@H](c2cccc(CNC(=O)C3=CCN(C)C3)c2)c2c(C)nn(-c3ccccc3)c21` [Compound I-362, N-(3-((4S,5R)-7-ethyl-3-methyl-6-oxo-1-phenyl-5-(3-(trifluoromethyl)benzamido)-4,5,6,7-tetrahydro-1H-pyrazolo[3,4-b]pyridin-4-yl)benzyl)-1-methyl-2,5-dihydro-1H-pyrrole-3-carboxamide]: the pIC50 under setting [1] was 5.52 to 6.00. Besides, the half-maximal inhibitory concentration (IC50) under setting [3] is 1000 to 3000 nM.

On to `C/C=C(\CN1CCOCC1)C(=O)NCc1cccc([C@@H]2c3cnn(-c4ccccc4)c3N(CC)C(=O)[C@H]2NC(=O)c2nccc(C(F)(F)F)n2)c1` [Compound I-363], for which the negative-log IC50 (pIC50) under setting [1] was no less than 6.70. Besides, the IC50 under setting [3] is 200 to 1000 nM.

As to `C=C(CN1CCOCC1)C(=O)NCc1cccc([C@@H]2c3cnn(-c4ccccc4)c3N(CC)C(=O)[C@H]2NC(=O)c2ccn(CC(F)F)n2)c1` [Compound I-364], the pIC50 under setting [1] was no less than 6.70. Further, the concentration for half-maximal inhibition (IC50) under setting [3] lay in the range of 200 to 1000 nM.

Turning to `C/C=C(\CN(C)C1COC1)C(=O)NCc1cccc([C@@H]2c3cnn(-c4ccccc4)c3N(CC)C(=O)[C@H]2NC(=O)c2csc(C(F)(F)F)n2)c1` [Compound I-365], the negative logarithm of the IC50 (pIC50) under setting [1] was no less than 6.70. In addition, under setting [3], the 50% inhibitory concentration (IC50) lay within 200 to 1000 nM.

Take `C/C=C(\CN1CCC1)C(=O)Nc1cccc([C@@H]2c3cnn(-c4ccccc4)c3N(CC)C(=O)[C@H]2NC(=O)c2nccc(C(F)(F)F)n2)c1` [Compound I-367]: the pIC50 under setting [1] was no less than 6.70. Besides, under setting [3], the 50% inhibitory concentration (IC50) lay in the range of 1000 to 3000 nM.

Consider `C/C=C(\CN1CCC(F)(F)C1)C(=O)Nc1cccc([C@@H]2c3cnn(-c4ccccc4)c3N(CC)C(=O)[C@H]2NC(=O)c2nccc(C(F)(F)F)n2)c1` [Compound I-368], for which the negative-log IC50 (pIC50) under setting [1] is no less than 6.70. The IC50 under setting [3] was 1000 to 3000 nM.

For the molecule `C/C=C(/CN1CCN(C2COC2)CC1)C(=O)N(C)c1cccc([C@@H]2c3cnn(-c4ccccc4)c3N(CC)C(=O)[C@H]2NC(=O)c2csc(C(F)(F)F)n2)c1` [Compound I-369], under setting [1], the pIC50 was 5.52 to 6.00. The 50% inhibitory concentration (IC50) under setting [3] was in the range of 1000 to 3000 nM.

As for `C=C(CN1CCC12COC2)C(=O)N(C)Cc1cccc([C@@H]2c3cnn(-c4ccccc4)c3N(CC)C(=O)[C@H]2NC(=O)c2ccn(C(F)(F)F)n2)c1` [Compound I-371], the pIC50 under setting [1] is 6.00 to 6.70. Further, the IC50 under setting [3] lay within 1000 to 3000 nM.

Take `CCN1C(=O)[C@@H](NC(=O)c2cccc(C(F)(F)F)c2)[C@H](c2cccc(CNC/C=C/C(=O)N(C)C)c2)c2cnn(-c3ccccc3)c21` [Compound I-372]: the pIC50 under setting [1] was 6.00 to 6.70. Besides, under setting [3], the IC50 fell in the range of 1000 to 3000 nM.

Turning to `C=C(CN1CCC12COC2)C(=O)N(C)Cc1cccc([C@@H]2c3cnn(-c4ccccc4)c3N(CC)C(=O)[C@H]2NC(=O)c2ccn(C3CC3)n2)c1` [Compound I-373], the pIC50 under setting [1] was no less than 6.70. Further, the IC50 under setting [3] fell in the range of 200 to 1000 nM.

For `C=C(CN1CCC1)C(=O)NCc1cccc([C@H]2c3c(C)nn(-c4ccccc4)c3N(CC)C(=O)[C@@H]2NC(=O)c2cccc(C(F)(F)F)c2)c1` [Compound I-374], the pIC50 under setting [1] was 6.00 to 6.70. Under setting [3], the IC50 lay within 200 to 1000 nM.

With `C=C(CN1CC2(CCC2O)C1)C(=O)NCc1cccc([C@@H]2c3cnn(-c4ccccc4)c3N(CC)C(=O)[C@H]2NC(=O)c2cccc(C(F)(F)F)c2)c1` (stereo partly drawn) [Compound I-375], the negative-log IC50 (pIC50) is, setting by setting: under setting [1], no less than 6.70; under setting [2], no less than 6.70.

Regarding `C=C(C(=O)NCc1cccc([C@@H]2c3cnn(-c4ccccc4)c3N(CC)C(=O)[C@@H]2NC(=O)c2nccc(C(F)(F)F)n2)c1)C(C)N1CC2(COC2)C1` (stereo partly drawn) [Compound I-377, N-((4R,5R)-7-ethyl-4-(3-((2-methylene-3-(2-oxa-6-azaspiro[3.3]heptan-6-yl)butanamido)methyl)phenyl)-6-oxo-1-phenyl-4,5,6,7-tetrahydro-1H-pyrazolo[3,4-b]pyridin-5-yl)-4-(trifluoromethyl)pyrimidine-2-carboxamide], the pIC50 under setting [1] was 6.00 to 6.70. In addition, under setting [3], the IC50 fell in the range of 1000 to 3000 nM.

In the case of `C/C=C(/CN1CCOCC1)C(=O)NCc1cccc([C@@H]2c3cnn(-c4ccccc4)c3N(CC)C(=O)[C@H]2NC(=O)c2ccn(C3CC3)n2)c1` [Compound I-381], the negative logarithm of the IC50 (pIC50) under setting [1] was 5.52 to 6.00. The half-maximal inhibitory concentration (IC50) under setting [3] fell in the range of 1000 to 3000 nM.

With `C/C=C(\CN(C)C1COC1)C(=O)Nc1cccc([C@@H]2c3cnn(-c4ccccc4)c3N(CC)C(=O)[C@H]2NC(=O)c2nccc(C(F)(F)F)n2)c1` [Compound I-384], under setting [1], the pIC50 is no less than 6.70. Further, the 50% inhibitory concentration (IC50) under setting [3] lay in the range of 200 to 1000 nM.

For `C/C=C(/C(=O)Nc1cccc([C@@H]2c3cnn(-c4ccccc4)c3N(CC)C(=O)[C@H]2NC(=O)c2nccc(C(F)(F)F)n2)c1)C(C)N1CCC1` (stereo partly drawn) [Compound I-385], under setting [1], the pIC50 was 5.52 to 6.00. Moreover, the IC50 under setting [3] fell in the range of 1000 to 3000 nM.
